Experiments:
Assay in all cases: relative viability (nuclei count vs DMSO), 5 days (fraction); higher = more cells survive
NCI-H727 = system: NCI-H727
Outline: (§1)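 Nuclei were stained with Hoechst during a one-step fixation (final 0.05% Triton X-100, 1% formaldehyde, 1 ug/ml Hoechst) carried out 5 days after dosing, then counted on 4× images. The cells, lung cancer lines in 1536-well plates, had been dosed by pin tool the day after seeding with one drug alone or a fixed anchor-drug dose plus five library-drug doses (not always all listed) in √10 steps. Relative viability is the nuclei count in treated wells divided by that in vehicle wells, and each value is the median of duplicate plates.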

NCI-H23 = system: NCI-H23
Outline: as §1

NCI-H1437 = system: NCI-H1437
Outline: as §1

NCI-H1975 = system: NCI-H1975
Outline: as §1

NCI-H1915 = system: NCI-H1915
Outline: as §1

A-427 = system: A-427
Outline: as §1

COR-L 105 = system: COR-L 105
Outline: as §1

NCI-H1792 = system: NCI-H1792
Outline: as §1

NCI-H460 = system: NCI-H460
Outline: as §1

NCI-H2228 = system: NCI-H2228
Outline: as §1

HARA = system: HARA
Outline: as §1

LCLC-103H = system: LCLC-103H
Outline: as §1

EMC-BAC-2 = system: EMC-BAC-2
Outline: as §1

NCI-H1355 = system: NCI-H1355
Outline: as §1

CAL-12T = system: CAL-12T
Outline: as §1

NCI-H1755 = system: NCI-H1755
Outline: as §1

HCC-366 = system: HCC-366
Outline: as §1

NCI-H1395 = system: NCI-H1395
Outline: as §1

SW 1573 = system: SW 1573
Outline: as §1

HCC-827 = system: HCC-827
Outline: as §1

SK-LU-1 = system: SK-LU-1
Outline: as §1

NCI-H2009 = system: NCI-H2009
Outline: as §1

HOP-62 = system: HOP-62
Outline: as §1

O=C(O)c1ccc(-c2c[nH]c3ncc(-c4ccccc4)cc23)cc1C1CCCC1 + Cc1nc(Nc2ncc(C(=O)Nc3c(C)cccc3Cl)s2)cc(N2CCN(CCO)CC2)n1 [Dasatinib] (partner 0.075 µM)
relative viability (NCI-H727; first compound 0.04 µM): 0.298 | relative viability (NCI-H727; first compound 0.1265 µM): 0.398 | relative viability (NCI-H727; first compound 0.4 µM): 0.442 | relative viability (NCI-H727; first compound 1.265 µM): 0.364 | relative viability (NCI-H23; first compound 0.04 µM): 0.82 | relative viability (NCI-H23; first compound 0.1265 µM): 1.04 | relative viability (NCI-H23; first compound 0.4 µM): 0.729 | relative viability (NCI-H23; first compound 1.265 µM): 0.717 | relative viability (NCI-H1437; first compound 0.04 µM): 0.385 | relative viability (NCI-H1437; first compound 0.1265 µM): 0.386 | relative viability (NCI-H1437; first compound 0.4 µM): 0.374 | relative viability (NCI-H1437; first compound 1.265 µM): 0.378 | relative viability (NCI-H1975; first compound 0.04 µM): 0.446 | relative viability (NCI-H1975; first compound 0.1265 µM): 0.356 | relative viability (NCI-H1975; first compound 0.4 µM): 0.408 | relative viability (NCI-H1975; first compound 1.265 µM): 0.376 | relative viability (NCI-H1915; first compound 0.04 µM): 0.297 | relative viability (NCI-H1915; first compound 0.1265 µM): 0.331 | relative viability (NCI-H1915; first compound 0.4 µM): 0.277 | relative viability (NCI-H1915; first compound 1.265 µM): 0.271 | relative viability (A-427; first compound 0.04 µM): 0.672 | relative viability (A-427; first compound 0.1265 µM): 0.749 | relative viability (A-427; first compound 0.4 µM): 0.64 | relative viability (A-427; first compound 1.265 µM): 0.595 | relative viability (COR-L 105; first compound 0.04 µM): 0.318 | relative viability (COR-L 105; first compound 0.1265 µM): 0.376 | relative viability (COR-L 105; first compound 0.4 µM): 0.383 | relative viability (COR-L 105; first compound 1.265 µM): 0.391 | relative viability (NCI-H1792; first compound 0.1265 µM): 0.8 | relative viability (NCI-H1792; first compound 0.4 µM): 0.856 | relative viability (NCI-H1792; first compound 1.265 µM): 0.847 | relative viability (NCI-H460; first compound 0.04 µM): 0.566 | relative viability (NCI-H460; first compound 0.1265 µM): 0.676 | relative viability (NCI-H460; first compound 0.4 µM): 0.472 | relative viability (NCI-H460; first compound 1.265 µM): 0.428 | relative viability (NCI-H2228; first compound 0.04 µM): 0.601 | relative viability (NCI-H2228; first compound 0.1265 µM): 0.607 | relative viability (NCI-H2228; first compound 0.4 µM): 0.519 | relative viability (NCI-H2228; first compound 1.265 µM): 0.395 | relative viability (HARA; first compound 0.04 µM): 0.237 | relative viability (HARA; first compound 0.1265 µM): 0.294 | relative viability (HARA; first compound 0.4 µM): 0.308 | relative viability (HARA; first compound 1.265 µM): 0.3 | relative viability (LCLC-103H; first compound 0.04 µM): 0.481 | relative viability (LCLC-103H; first compound 0.1265 µM): 0.426 | relative viability (LCLC-103H; first compound 0.4 µM): 0.499 | relative viability (LCLC-103H; first compound 1.265 µM): 0.545 | relative viability (EMC-BAC-2; first compound 0.04 µM): 0.285 | relative viability (EMC-BAC-2; first compound 0.1265 µM): 0.31 | relative viability (EMC-BAC-2; first compound 0.4 µM): 0.323 | relative viability (EMC-BAC-2; first compound 1.265 µM): 0.294 | relative viability (NCI-H1355; first compound 0.04 µM): 0.754 | relative viability (NCI-H1355; first compound 0.1265 µM): 0.841 | relative viability (NCI-H1355; first compound 0.4 µM): 0.664 | relative viability (NCI-H1355; first compound 1.265 µM): 0.567 | relative viability (CAL-12T; first compound 0.04 µM): 0.484 | relative viability (CAL-12T; first compound 0.1265 µM): 0.602 | relative viability (CAL-12T; first compound 0.4 µM): 0.481 | relative viability (CAL-12T; first compound 1.265 µM): 0.323 | relative viability (NCI-H1755; first compound 0.04 µM): 0.394 | relative viability (NCI-H1755; first compound 0.1265 µM): 0.541 | relative viability (NCI-H1755; first compound 0.4 µM): 0.423 | relative viability (NCI-H1755; first compound 1.265 µM): 0.436 | relative viability (HCC-366; first compound 0.04 µM): 0.583 | relative viability (HCC-366; first compound 0.1265 µM): 0.786 | relative viability (HCC-366; first compound 0.4 µM): 0.689 | relative viability (HCC-366; first compound 1.265 µM): 0.669 | relative viability (NCI-H1395; first compound 0.04 µM): 0.392 | relative viability (NCI-H1395; first compound 0.1265 µM): 0.396 | relative viability (NCI-H1395; first compound 0.4 µM): 0.365 | relative viability (NCI-H1395; first compound 1.265 µM): 0.426 | relative viability (SW 1573; first compound 0.04 µM): 0.398 | relative viability (SW 1573; first compound 0.1265 µM): 0.542 | relative viability (SW 1573; first compound 0.4 µM): 0.455 | relative viability (SW 1573; first compound 1.265 µM): 0.392 | relative viability (HCC-827; first compound 0.04 µM): 0.339 | relative viability (HCC-827; first compound 0.1265 µM): 0.294 | relative viability (HCC-827; first compound 0.4 µM): 0.348 | relative viability (HCC-827; first compound 1.265 µM): 0.381 | relative viability (SK-LU-1; first compound 0.04 µM): 0.169 | relative viability (SK-LU-1; first compound 0.1265 µM): 0.194 | relative viability (SK-LU-1; first compound 0.4 µM): 0.157 | relative viability (SK-LU-1; first compound 1.265 µM): 0.165 | relative viability (NCI-H2009; first compound 0.04 µM): 0.322 | relative viability (NCI-H2009; first compound 0.1265 µM): 0.312 | relative viability (NCI-H2009; first compound 0.4 µM): 0.277 | relative viability (NCI-H2009; first compound 1.265 µM): 0.264 | relative viability (HOP-62; first compound 0.04 µM): 0.598 | relative viability (HOP-62; first compound 0.1265 µM): 0.669 | relative viability (HOP-62; first compound 0.4 µM): 0.78 | relative viability (HOP-62; first compound 1.265 µM): 0.666

From the supplement of paper PMC10307832
